Counter-ions that a name gives are not always drawn.
Test system: individuals with schizophrenia
Test: Therapeutic administration of dextromethorphan in schizophrenia (summary statement)
Assay type: in vivo, human

Question: Which results are given for `COc1ccc2c(c1)[C@]13CCCC[C@@H]1[C@H](C2)N(C)CC3` [dextromethorphan, morphinan, 3-methoxy-17-methyl-, (9a, 13a, 14a)-hydrobromide monohydrate]?
Answer: progression of schizophrenia (administered at first break): mitigated the progression of schizophrenia, and in some cases, reversed the disorder; positive symptoms, in particular expressions of hostility (in vivo): appears to also reduce some positive symptoms; frequency and intensity of negative symptoms (individuals with established schizophrenia diagnoses): significantly reduced; negative symptoms of schizophrenia (therapeutic administration): substantially reduces
